In paper PMC4585333, “Novel Regulator of Acylated Ghrelin, CF801, Reduces Weight Gain, Rebound Feeding after a Fast, and Adiposity in Mice” (Frontiers in Endocrinology, 2015):
Entries after “also recorded” stand apart in the source; their conditions may differ.

Biological target: T1, mouse GOAT (mGOAT) (Mus musculus, UniProt P0C7A3)
T1 construct: made in house; host or cells: Sf9 insect cells (membrane fraction)
T1 sequence (P0C7A3 1-435): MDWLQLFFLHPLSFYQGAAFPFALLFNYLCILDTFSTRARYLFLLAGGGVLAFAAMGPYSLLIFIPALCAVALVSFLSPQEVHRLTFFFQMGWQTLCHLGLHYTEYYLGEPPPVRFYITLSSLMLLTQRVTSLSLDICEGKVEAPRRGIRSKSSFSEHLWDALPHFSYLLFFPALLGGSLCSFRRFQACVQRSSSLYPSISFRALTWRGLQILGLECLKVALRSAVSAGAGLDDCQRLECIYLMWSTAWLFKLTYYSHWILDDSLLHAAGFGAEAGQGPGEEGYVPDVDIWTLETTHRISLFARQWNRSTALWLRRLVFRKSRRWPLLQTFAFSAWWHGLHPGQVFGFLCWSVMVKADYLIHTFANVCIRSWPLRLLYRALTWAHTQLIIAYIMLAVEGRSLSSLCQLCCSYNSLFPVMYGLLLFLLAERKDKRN
Assay: Fluorescence-based GOAT activity assay, mouse GOAT
Type: biochemical
Settings: concentrations up to 10 μM; Sf9 membranes, 1.5 μM GSSFLCAcDan, 500 μM octanoyl-CoA, 30 min pre-incubation, 1 h room temperature, pH 7.0, HPLC fluorescence, triplicate; F(3,8) = 0.139, p > 0.05
Text: The effects of CF801 on GOAT activity were examined using a previously validated fluorescence-based assay, and in comparison with octanoyl-(Dap3)-ghrelin (1–5)–NH2, a well characterized GOAT inhibitor ([56], [63]). In this assay, membrane fractions from Sf9 insect cells were transfected to express either human (hGOAT) or mouse GOAT (mGOAT). Membranes fractions were thawed on ice and passed through an 18-gage needle 10 times enriched using a previously described method ([63]). […] Assays were analyzed by reverse phase HPLC with fluorescence detection. […] The trials were run in triplicate, with the % activity calculated as the integrated fluorescence intensity of the octanoylated product in the CF801 or octanoyl-(Dap3)-ghrelin (1–5)–NH2 run normalized by the same quantity for the vehicle-only reaction. […]
Figure 3 Percent activity of human GOAT (A) and mouse GOAT (B) (obtained from membrane fractions from Sf9 cells expressing hGOAT and mGOAT, resepectively) when exposed to CF801 and octanoyl-(Dap3)-ghrelin (1–5)–NH2 using a fluorescence-based microsomal assay. GSSFLCAcDan was used as an acylation target with fluorescence measured by reverse phase HPLC with fluorescence detection. […] All values are expressed as mean ± SEM. ***p < 0.001 compared to vehicle control.

GSAFLSPEHQRK KRRQRRR-NH2 [CF801]
mGOAT activity with CF801: no inhibition was seen; also recorded: no effect
